The source of these data is patent US20080188528A1, “Modulators of C3a receptor and methods of use thereof” (priority 2006, published 2008).

Structures can show the parent of a compound that is named as a salt.

The test has as its target T1, human C3a receptor (C3aR) (Homo sapiens, UniProt Q16581).
T1 construct: expressed in transfected cells
T1 sequence (Q16581 1-482): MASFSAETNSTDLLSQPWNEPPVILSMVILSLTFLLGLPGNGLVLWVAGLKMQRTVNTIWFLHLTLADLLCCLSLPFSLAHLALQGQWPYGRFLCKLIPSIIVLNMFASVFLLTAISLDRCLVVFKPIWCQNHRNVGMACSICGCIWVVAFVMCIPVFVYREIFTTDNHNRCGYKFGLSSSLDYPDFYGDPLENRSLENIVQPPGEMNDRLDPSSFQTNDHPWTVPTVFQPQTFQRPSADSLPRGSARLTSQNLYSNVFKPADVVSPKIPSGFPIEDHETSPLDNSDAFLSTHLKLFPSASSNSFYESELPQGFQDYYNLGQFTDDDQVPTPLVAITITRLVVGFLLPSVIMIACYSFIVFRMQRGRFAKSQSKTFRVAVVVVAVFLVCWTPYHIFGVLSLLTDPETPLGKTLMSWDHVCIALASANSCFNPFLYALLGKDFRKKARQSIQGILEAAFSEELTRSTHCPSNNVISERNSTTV
Put plainly: Inhibition of human [125I]-C3a binding to human C3a receptor (SPA, membranes of HEK293 cells expressing recombinant C3aR). The following applies: 0.1 nM [125I]-C3a, 3 hours at room temperature; Table 6. A digest of the protocol: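 HEK293 C3aR membranes were pre-coupled to WGA SPA beads and incubated 3 h at room temperature with 0.1 nM [125I]-C3a in HEPES pH 7.4 buffer containing 0.25% BSA and 0.2% CHAPS, DMSO ≤1%. Nonspecific binding was defined with 1 μM unlabeled C3a. IC50 came from nonlinear least-squares fitting.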
Turning to `CC(=N)NCCC[C@H](NC(=O)c1cccn(Cc2ccccc2Cl)c1=O)C(=O)O` [Compound 104, (2S)-2-({[1-(2-chlorobenzyl)-2-oxo-1,2-dihydropyridin-3-yl]carbonyl}amino)-5-(ethanimidoylamino)pentanoic acid•TFA], the IC50 (usually the point on the concentration scale where inhibition reaches its midpoint) is 500 to 20000 nM.
As to `O=C(N[C@@H](Cc1c[nH]c2ccccc12)C(=O)O)c1cccn(C(c2ccccc2)c2ccccc2)c1=O` [Compound 105, (2S)-2-({[1-(Diphenylmethyl)-2-oxo-1,2-dihydropyridin-3-yl]carbonyl}amino)-3-(1H-indol-3-yl)propanoicacid], the half-inhibitory concentration (IC50) lay within 50 to 500 nM.
For the molecule `CC(=N)NCCC[C@H](NC(=O)c1cccn(Cc2cccc(C(F)(F)F)c2)c1=O)C(=O)O` [Compound 106, (2S)-5-(ethanimidoylamino)-2-[({2-oxo-1-[3-(trifluoromethyl)benzyl]-1,2-dihydropyridin-3-yl}carbonyl)amino]pentanoic acid•TFA], the IC50 is 50 to 500 nM.
Consider `CC(=N)NCCC[C@H](NC(=O)c1cccn(Cc2ccccc2C(F)(F)F)c1=O)C(=O)O` [Compound 107, (2S)-5-(ethanimidoylamino)-2-[({2-oxo-1-[2-(trifluoromethyl)benzyl]-1,2-dihydropyridin-3-yl}carbonyl)amino]pentanoic acid•TFA], for which the IC50 is 500 to 20000 nM.
Consider `CC(=N)NCCC[C@H](NC(=O)c1ccc(C(c2ccccc2)c2ccccc2)cc1)C(=O)O` [Compound 108, (2S)-2-({[4-(Diphenylmethyl)phenyl]carbonyl}amino)-5-(ethanimidoylamino)pentanoic acid], for which the IC50 was in the range of 500 to 20000 nM.
The result for `CC(=N)NCCC[C@H](NC(=O)c1cccn(Cc2cccc(Br)c2)c1=O)C(=O)O` [Compound 109, (2S)-2-({[1-(3-bromobenzyl)-2-oxo-1,2-dihydropyridin-3-yl]carbonyl}amino)-5-(ethanimidoylamino)pentanoic acid•TFA] reads 50 to 500 nM.
Regarding `CC(=N)NCCC[C@H](NC(=O)c1cccn(Cc2ccc(Br)cc2)c1=O)C(=O)O` [Compound 110, (2S)-2-({[1-(4-bromobenzyl)-2-oxo-1,2-dihydropyridin-3-yl]carbonyl}amino)-5-(ethanimidoylamino)pentanoic acid•TFA], the IC50 lay in the range of 50 to 500 nM.
Regarding `N=C(N)NC(=O)CC[C@H](NC(=O)c1ccc(C(c2ccccc2)c2ccccc2)cc1)C(=O)O` [Compound 111, (2S)-5-Carbamimidamido-2-({[4-(diphenylmethyl)phenyl]carbonyl}amino)-5-oxopentanoic acid], the IC50 was under 50 nM.
To `CC(=N)NCCC[C@H](NC(=O)c1cccc(C(c2ccccc2)c2ccccc2)c1)C(=O)O` [Compound 112, (2S)-2-({[3-(Diphenylmethyl)phenyl]carbonyl}amino)-5-(ethanimidoylamino)pentanoic acid] belongs 50 to 500 nM.
Consider `CC(=N)NCCC[C@H](NC(=O)c1cccn(Cc2ccc(C(F)(F)F)cc2)c1=O)C(=O)O` [Compound 113, (2S)-5-(ethanimidoylamino)-2-[({2-oxo-1-[4-(trifluoromethyl)benzyl]-1,2-dihydropyridin-3-yl}carbonyl)amino]pentanoic acid•TFA], for which the IC50 lay in the range of 500 to 20000 nM.
For `CC(=N)NCCC[C@H](NC(=O)c1cccn(Cc2cccc(I)c2)c1=O)C(=O)O` [Compound 114, (2S)-5-(ethanimidoylamino)-2-({[1-(3-iodobenzyl)-2-oxo-1,2-dihydropyridin-3-yl]carbonyl}amino)pentanoic acid•TFA], the half-maximal inhibitory concentration (IC50) lay within 50 to 500 nM.
The result for `CC(=N)NCCC[C@H](NC(=O)c1cccn(Cc2cc(Br)cc(Br)c2)c1=O)C(=O)O` [Compound 115, (2S)-2-({[1-(3,5-dibromobenzyl)-2-oxo-1,2-dihydropyridin-3-yl]carbonyl}amino)-5-(ethanimidoylamino)pentanoic acid•TFA] reads under 50 nM.
As to `CC(=N)NCCC[C@H](NC(=O)c1cccn(Cc2cc(Cl)cc(Cl)c2)c1=O)C(=O)O` [Compound 116, (2S)-2-({[1-(3,5-dichlorobenzyl)-2-oxo-1,2-dihydropyridin-3-yl]carbonyl}amino)-5-(ethanimidoylamino)pentanoic acid•TFA], the IC50 was under 50 nM.
As for `CC(=N)NCCC[C@H](NC(=O)c1cccn(Cc2cc(F)cc(F)c2)c1=O)C(=O)O` [Compound 117, (2S)-2-({[1-(3,5-difluorobenzyl)-2-oxo-1,2-dihydropyridin-3-yl]carbonyl}amino)-5-(ethanimidoylamino)pentanoic acid•TFA], the IC50 was 50 to 500 nM.
In the case of `CCCC(=N)NCCC[C@H](NC(=O)c1ccc(C(c2ccccc2)c2ccccc2)s1)C(=O)O` [Compound 118, (2S)-5-(butanimidoylamino)-2-({[5-(diphenylmethyl)thiophen-2-yl]carbonyl}amino)pentanoic acid•TFA], the half-maximal inhibitory concentration (IC50) was 500 to 20000 nM.
For the molecule `N=C(NCCC[C@H](NC(=O)c1ccc(C(c2ccccc2)c2ccccc2)s1)C(=O)O)c1ccccn1` [Compound 119, (2S)-2-({[5-(diphenylmethyl)thiophen-2-yl]carbonyl}amino)-5-{[imino(pyridin-2-yl)methyl]amino}pentanoic acid•TFA], the IC50 was 500 to 20000 nM.
Turning to `N=C(NCCC[C@H](NC(=O)c1ccc(C(c2ccccc2)c2ccccc2)s1)C(=O)O)c1ccccc1` [Compound 120, (2S)-2-({[5-(diphenylmethyl)thiophen-2-yl]carbonyl}amino)-5-{[imino(phenyl)methyl]amino}pentanoic acid•TFA], the half-inhibitory concentration (IC50) was 500 to 20000 nM.
On to `N=C(NCCC[C@H](NC(=O)c1ccc(C(c2ccccc2)c2ccccc2)s1)C(=O)O)C1CC1` [Compound 121, (2S)-5-{[cyclopropyl(imino)methyl]amino}-2-({[5-(diphenylmethyl)thiophen-2-yl]carbonyl}amino)pentanoic acid•TFA], for which the IC50 fell in the range of 500 to 20000 nM.
For the molecule `COc1ccn(C(c2ccccc2)c2ccccc2)c(=O)c1C(=O)N[C@@H](CCCNC(C)=N)C(=O)O` [Compound 122, (2S)-2-({[1-(diphenylmethyl)-4-methoxy-2-oxo-1,2-dihydropyridin-3-yl]carbonyl}amino)-5-(ethanimidoylamino)pentanoic acid•TFA], the IC50 was in the range of 500 to 20000 nM.
In the case of `CCOC(=O)CC(=N)NCCC[C@H](NC(=O)c1ccc(C(c2ccccc2)c2ccccc2)s1)C(=O)O` [Compound 123, (2S)-2-({[5-(diphenylmethyl)thiophen-2-yl]carbonyl}amino)-5-[(3-ethoxy-3-oxopropanimidoyl)amino]pentanoic acid•TFA], the IC50 is 500 to 20000 nM.
Turning to `CC(=N)NCCC[C@H](NC(=O)c1ccc(C(c2ccc(C)cc2)c2ccc(C)cc2)s1)C(=O)O` [Compound 124, (2S)-2-[({5-[bis(4-methylphenyl)methyl]thiophen-2-yl}carbonyl)amino]-5-(ethanimidoylamino)pentanoic acid•TFA], the IC50 lay in the range of 500 to 20000 nM.
In the case of `CC(=N)NCCC[C@H](NC(=O)c1ccc(C(c2ccc(Cl)cc2)c2ccc(Cl)cc2)s1)C(=O)O` [Compound 125, (2S)-2-[({5-[bis(4-chlorophenyl)methyl]thiophen-2-yl}carbonyl)amino]-5-(ethanimidoylamino)pentanoic acid•TFA], the IC50 lay within 50 to 500 nM.
For `CC(=N)NCCC[C@H](NC(=O)c1ccc(C(c2ccccc2Cl)c2ccccc2Cl)s1)C(=O)O` [Compound 126, (2S)-2-[({5-[bis(2-chlorophenyl)methyl]thiophen-2-yl}carbonyl)amino]-5-(ethanimidoylamino)pentanoic acid•TFA], the IC50 fell in the range of 500 to 20000 nM.
To `CC(=N)NCCC[C@H](NC(=O)c1ccc(C(c2cccs2)c2cccs2)s1)C(=O)O` [Compound 127] belongs 50 to 500 nM; to `CC(=N)NCCC[C@H](NC(=O)c1ccc(C(c2ccc(F)cc2)c2ccc(F)cc2)s1)C(=O)O` [Compound 128, (2S)-2-[({5-[bis(4-fluorophenyl)methyl]thiophen-2-yl}carbonyl)amino]-5-(ethanimidoylamino)pentanoic acid•TFA], 50 to 500 nM.
As for `CC(=N)NCCC[C@H](NC(=O)c1ccc(C(c2cccc(F)c2)c2cccc(F)c2)s1)C(=O)O` [Compound 129, (2S)-2-[({5-[bis(3-fluorophenyl)methyl]thiophen-2-yl}carbonyl)amino]-5-(ethanimidoylamino)pentanoic acid•TFA], the IC50 fell in the range of 50 to 500 nM.
Regarding `CC(=N)NCCC[C@H](NC(=O)c1ccc(C(c2cccc(C(F)(F)F)c2)c2cccc(C(F)(F)F)c2)s1)C(=O)O` [Compound 130, (2S)-2-{[(5-{Bis[3-(trifluoromethyl)phenyl]methyl}thiophen-2-yl)carbonyl]amino}-5-(ethanimidoylamino)pentanoic acid], the IC50 is 500 to 20000 nM.
Take `CC(=N)NCCC[C@H](NC(=O)c1ccc(C(c2cccc(Cl)c2)c2cccc(Cl)c2)s1)C(=O)O` [Compound 131, (2S)-2-[({5-[bis(3-chlorophenyl)methyl]thiophen-2-yl}carbonyl)amino]-5-(ethanimidoylamino)pentanoic acid•TFA]: the IC50 was under 50 nM.
To `CC(C)C(=N)NCCC[C@H](NC(=O)c1ccc(C(c2ccccc2)c2ccccc2)s1)C(=O)O` [Compound 132, (2S)-2-({[5-(diphenylmethyl)thiophen-2-yl]carbonyl}amino)-5-[(2-methylpropanimidoyl)amino]pentanoic acid•TFA] belongs 500 to 20000 nM.
